From patent US10508104B2, “6-hydroxy-5-(phenyl/heteroarylsulfonyl)pyrimidin-4(1H)-one as APJ agonists” (Bristol-Myers Squibb Company, priority 2016, dated 2019)
Read-outs that look alike come from different tables or passages of the source.

Target: human APJ receptor (Homo sapiens (Human), UniProt P35414)
Assay: Intracellular cAMP accumulation assay (APJ hcAMP, HTRF)
Format: cell-based
Conditions: read-out: Human APJ cAMP EC50 Potency range
Procedure: Intracellular cAMP Accumulation Assay
HEK293 cells stably expressing human APJ receptor were used to assess the activity of compounds. Cultured cells were detached and resuspended in the cAMP Homogeneous Time-Resolved Fluorescence (HTRF) assay buffer (Cisbio cat; #62AM4PEJ). The assay was performed in 384-well assay plates (Perkin-Elmer; cat #6008289) according to assay protocol provided by the manufacturer. Serial dilutions of a compound together with assay buffer containing […] and 2 μM forskolin were added to each well containing 5,000 cells and incubated for 30 minutes at room temperature. Subsequently, cAMP D2 reagent was added in the lysis buffer followed by the EuK antibody (Cisbio; cat #62AM4PEJ) and incubated for 60 min. The fluorescence emission ratio was measured using fluorometer. The intracellular cAMP concentrations (compound-stimulated inhibition of forskolin-mediated cAMP production) were calculated by extrapolation from a standard curve using known cAMP concentrations. The EC50 values were obtained by fitting the data to a sigmoidal concentration-response curve with variable slope.
The EC50 value of each compound is presented at the end of the example description.
The biological activity of the exemplified compounds of this invention determined by the assay described above is shown at the end of each example.

[1] = human APJ, intracellular cAMP accumulation

Sequence of human APJ receptor (P35414 whole entry): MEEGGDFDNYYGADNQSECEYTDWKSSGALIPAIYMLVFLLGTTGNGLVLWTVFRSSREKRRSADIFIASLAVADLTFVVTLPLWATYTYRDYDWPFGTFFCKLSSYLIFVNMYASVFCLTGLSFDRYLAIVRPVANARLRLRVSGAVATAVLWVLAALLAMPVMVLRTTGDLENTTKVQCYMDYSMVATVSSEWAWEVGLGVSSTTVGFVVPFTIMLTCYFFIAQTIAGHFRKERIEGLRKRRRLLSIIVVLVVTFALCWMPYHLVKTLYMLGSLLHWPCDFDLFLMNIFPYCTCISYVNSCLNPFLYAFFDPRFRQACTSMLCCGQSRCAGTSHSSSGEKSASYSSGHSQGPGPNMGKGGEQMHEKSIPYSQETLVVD

Row | Structure (SMILES) | EC50 [1] | EC50 (HEK293 cells stably expressing human APJ receptor, inhibition of forskolin-mediated cAMP production)
1 | CCCCc1nc(=O)c(S(=O)(=O)c2ccc(-c3cccc(OCOC)c3)cc2)c(O)n1-c1c(OC)cccc1OC [Example 45, 2-butyl-1-(2,6-dimethoxyphenyl)-6-hydroxy-5-{4-[3-(methoxymethoxy)phe-nyl]benzenesulfonyl}-1,4-dihydropyrimidin-4-one] | 0.01 to 10 nM | –
2 | CCCCc1nc(=O)c(S(=O)(=O)c2ccc(-c3ccccc3C#N)cc2)c(O)n1-c1c(OC)cccc1OC [Example 46, 2-(4-{[2-butyl-1-(2,6-dimethoxyphenyl)-6-hydroxy-4-oxo-1,4-dihydropyrimidin-5-yl]sulfonyl}phenyl) benzonitrile] | 0.01 to 10 nM | –
3 | CCCCc1nc(=O)c(S(=O)(=O)c2ccc(-c3cccc(C#N)c3)cc2)c(O)n1-c1c(OC)cccc1OC [Example 47, 3-(4-{[2-butyl-1-(2,6-dimethoxyphenyl)-6-hydroxy-4-oxo-1,4-dihydropyrimidin-5-yl]sulfonyl}phenyl) benzonitrile] | 0.01 to 10 nM | –
4 | CCCCc1nc(=O)c(S(=O)(=O)c2ccc(-c3ccc(NC(=O)OC)cc3)cc2)c(O)n1-c1c(OC)cccc1OC [Example 48, methyl N-[4-(4-{[2-butyl-1-(2,6-dimethoxyphenyl)-6-hydroxy-4-oxo-1,4-dihydropyrimidin-5-yl]sulfonyl}phenyl)phe-nyl]carbamate] | 0.01 to 10 nM | –
5 | CCCCc1nc(=O)c(S(=O)(=O)c2ccc(-c3ccccc3COC)cc2)c(O)n1-c1c(OC)cccc1OC [Example 49, 2-butyl-1-(2,6-dimethoxyphenyl)-6-hydroxy-5-{4-[2-(methoxymethyl)phenyl]benzenesulfonyl}-1,4-dihydropyrimidin-4-one] | 0.01 to 10 nM | –
6 | CCCCc1nc(=O)c(S(=O)(=O)c2ccc(-c3cncc(F)c3)cc2)c(O)n1-c1c(OC)cccc1OC [Example 50, 2-butyl-1-(2,6-dimethoxyphenyl)-5-[4-(5-fluoropyridin-3-yl)benzenesulfonyl]-6-hydroxy-1,4-dihydropyrimidin-4-one] | 0.01 to 10 nM | –
7 | CCCCc1nc(=O)c(S(=O)(=O)c2ccc(-c3ccnc(NC(=O)C4CC4)c3)cc2)c(O)n1-c1c(OC)cccc1OC [Example 51, N-[4-(4-{[2-butyl-1-(2,6-dimethoxyphenyl)-6-hydroxy-4-oxo-1,4-dihydropyrimidin-5-yl]sulfonyl}phenyl)pyri-din-2-yl]cyclopropane-carboxamide] | 0.01 to 10 nM | –
8 | CCCCc1nc(=O)c(S(=O)(=O)c2ccc(-c3cccc4cnccc34)cc2)c(O)n1-c1c(OC)cccc1OC [Example 52, 2-butyl-1-(2,6-dimethoxyphenyl)-6-hydroxy-5-[4-(isoquinolin-5-yl)benzenesulfonyl]-1,4-dihydropyrimidin-4-one] | 0.01 to 10 nM | –
9 | CCCCc1nc(=O)c(S(=O)(=O)c2ccc(-c3ccc4c(ccn4C)c3)cc2)c(O)n1-c1c(OC)cccc1OC [Example 53, 2-butyl-1-(2,6-dimethoxyphenyl)-6-hydroxy-5-[4-(1-methyl-1H-indol-5-yl)benzenesulfonyl]-1,4-dihydropyrimidin-4-one] | 0.01 to 10 nM | –
10 | CCCCc1nc(=O)c(S(=O)(=O)c2ccc(-c3ccc4ncccc4c3)cc2)c(O)n1-c1c(OC)cccc1OC [Example 54, 2-butyl-1-(2,6-dimethoxyphenyl)-6-hydroxy-5-[4-(quinolin-6-yl)benzenesulfonyl]-1,4-dihydropyrimidin-4-one] | 0.01 to 10 nM | –
11 | CCCCc1nc(=O)c(S(=O)(=O)c2ccc(-c3ccc(OC(F)(F)F)cc3)cc2)c(O)n1-c1c(OC)cccc1OC [Example 55, 2-butyl-1-(2,6-dimethoxyphenyl)-6-hydroxy-5-{4-[4-(trifluoromethoxy)phenyl]benzenesulfonyl}-1,4-dihydropyrimidin-4-one] | 0.01 to 10 nM | –
12 | CCCCc1nc(=O)c(S(=O)(=O)c2ccc(-c3cc(Cl)cc(Cl)c3)cc2)c(O)n1-c1c(OC)cccc1OC [Example 56, 2-butyl-5-[4-(3,5-dichlorophenyl)benzenesulfonyl]-1-(2,6-dimethoxyphenyl)-6-hydroxy-1,4-dihydropyrimidin-4-one] | 0.01 to 10 nM | –
13 | CCCCc1nc(=O)c(S(=O)(=O)c2ccc(-c3ccccc3F)cc2)c(O)n1-c1c(OC)cccc1OC [Example 57, 2-butyl-1-(2,6-dimethoxyphenyl)-5-[4-(2-fluorophenyl)benzene-sulfonyl]-6-hydroxy-1,4-dihydropyrimidin-4-one] | 0.01 to 10 nM | –
14 | CCCCc1nc(=O)c(S(=O)(=O)c2ccc(-c3ccc(F)c(F)c3)cc2)c(O)n1-c1c(OC)cccc1OC [Example 58, 2-butyl-5-[4-(3,4-difluorophenyl)benzenesulfonyl]-1-(2,6-dimethoxyphenyl)-6-hydroxy-1,4-dihydropyrimidin-4-one] | 0.01 to 10 nM | –
15 | CCCCc1nc(=O)c(S(=O)(=O)c2ccc(-c3ccc(C)c(C)c3)cc2)c(O)n1-c1c(OC)cccc1OC [Example 59, 2-butyl-1-(2,6-dimethoxyphenyl)-5-[4-(3,4-dimethylphenyl)benzene-sulfonyl]-6-hydroxy-1,4-dihydropyrimidin-4-one] | 0.01 to 10 nM | –
16 | CCCCc1nc(=O)c(S(=O)(=O)c2ccc(-c3cccnc3C)cc2)c(O)n1-c1c(OC)cccc1OC [Example 60, 2-butyl-1-(2,6-dimethoxyphenyl)-6-hydroxy-5-[4-(2-methylpyridin-3-yl)benzenesulfonyl]-1,4-dihydropyrimidin-4-one] | 0.01 to 10 nM | –
17 | CCCCc1nc(=O)c(S(=O)(=O)c2ccc(-c3ccc(Cl)nc3C)cc2)c(O)n1-c1c(OC)cccc1OC [Example 61, 2-butyl-5-[4-(6-chloro-2-methylpyridin-3-yl)benzenesulfonyl]-1-(2,6-dimethoxyphenyl)-6-hydroxy-1,4-dihydropyrimidin-4-one] | 0.01 to 10 nM | –
18 | CCCCc1nc(=O)c(S(=O)(=O)c2ccc(C)cc2)c(O)n1-c1c(OC)cccc1OC [Example 62, 2-butyl-1-(2,6-dimethoxyphenyl)-6-hydroxy-5-(4-methylbenzenesulfonyl)-1,4-dihydropyrimidin-4-one] | 0.01 to 10 nM | –
19 | COc1cccc(OC)c1-n1c(C2CCCC2)nc(=O)c(S(=O)(=O)c2ccc(C)cc2)c1O [Example 63, 2-cyclopentyl-1-(2,6-dimethoxyphenyl)-6-hydroxy-5-(4-methylbenzenesulfonyl)-1,4-dihydropyrimidin-4-one] | 0.01 to 10 nM | –
20 | COc1cccc(OC)c1-n1c(C2CCCC2)nc(=O)c(S(=O)(=O)c2ccc(-c3ccnc(NC(=O)C4CC4)c3)cc2)c1O [Example 64, N-[4-(4-{[2-cyclopentyl-1-(2,6-dimethoxyphenyl)-6-hydroxy-4-oxo-1,4-dihydropyrimidin-5-yl]sulfonyl}phenyl)pyri-din-2-yl]cyclopropane-carboxamide] | 0.01 to 10 nM | –
21 | CCCCc1nc(=O)c(S(=O)(=O)c2ccc(-c3ccnc(NC(=O)C4CC4)c3)cc2)c(O)n1-c1c(CC)cccc1CC [Example 65, N-[4-(4-{[2-butyl-1-(2,6-diethylphenyl)-6-hydroxy-4-oxo-1,4-dihydropyrimidin-5-yl]sulfonyl}phenyl)pyri-din-2-yl]cyclopropane-carboxamide] | 0.01 to 10 nM | –
22 | CCCCc1nc(=O)c(S(=O)(=O)c2ccc(C)cc2)c(O)n1-c1c(CC)cccc1CC [Example 66, 2-butyl-1-(2,6-diethylphenyl)-6-hydroxy-5-(4-methylbenzenesulfonyl)-1,4-dihydropyrimidin-4-one] | 0.01 to 10 nM | –
23 | CCOCc1nc(=O)c(S(=O)(=O)c2ccc(C)cc2)c(O)n1-c1c(CC)cccc1CC [Example 67, 1-(2,6-diethylphenyl)-2-(ethoxymethyl)-6-hydroxy-5-(4-methylbenzenesulfonyl)-1,4-dihydropyrimidin-4-one] | 0.01 to 10 nM | –
24 | CCCCc1nc(=O)c(S(=O)(=O)c2ccc(-c3ccc(F)cc3)c(F)c2)c(O)n1-c1c(OC)cccc1OC [Example 68, 2-butyl-1-(2,6-dimethoxyphenyl)-5-[3-fluoro-4-(4-fluorophenyl)benzene-sulfonyl]-6-hydroxy-1,4-dihydropyrimidin-4-one] | 0.01 to 10 nM | –
25 | CCCCc1nc(=O)c(S(=O)(=O)c2ccc(-c3ccnc(F)c3C)c(F)c2)c(O)n1-c1c(OC)cccc1OC [Example 69, 2-butyl-1-(2,6-dimethoxyphenyl)-5-[3-fluoro-4-(2-fluoro-3-methylpyridin-4-yl)benzenesulfonyl]-6-hydroxy-1,4-dihydropyrimidin-4-one] | 0.01 to 10 nM | –
26 | CCCCc1nc(=O)c(S(=O)(=O)c2ccc(-c3ccc(F)nc3)c(F)c2)c(O)n1-c1c(OC)cccc1OC [Example 70, 2-butyl-1-(2,6-dimethoxyphenyl)-5-[3-fluoro-4-(6-fluoropyridin-3-yl)benzenesulfonyl]-6-hydroxy-1,4-dihydropyrimidin-4-one] | 0.01 to 10 nM | –
27 | CCCCc1nc(=O)c(S(=O)(=O)c2ccc(-n3cc(Cl)ccc3=O)cc2)c(O)n1-c1c(OC)cccc1OC [Example 71, 2-Butyl-5-((4-(5-chloro-2-oxopyridin-1 (2H)-yl)phenyl)sulfonyl)-1-(2,6-dimethoxyphenyl)-6-hydroxypyrimidin-4(1H)-one] | – | 0.01 to 10 nM
28 | CCCCc1nc(=O)c(S(=O)(=O)c2ccc(-n3ccccc3=O)cc2)c(O)n1-c1c(OC)cccc1OC [Example 72, 2-butyl-1-(2,6-dimethoxyphenyl)-6-hydroxy-5-[4-(2-oxo-1,2-dihydropyridin-1-yl)benzenesulfonyl]-1,4-dihydropyrimidin-4-one] | 0.01 to 10 nM | –
